Assay results as given in patent US8552018B2, “Substituted tricyclic compounds as protein kinase inhibitors” (Arizona Board of Regents on behalf of the University of …, priority 2003, dated 2013).
Like-named read-outs stand apart in the source and are kept apart here.

Tests used:
[1] = target: T1, aurora-2 kinase (Homo sapiens, UniProt O14965); experiment: Aurora-2 kinase inhibition assay (Kinase-Glo); type: biochemical; conditions: for degree of inhibition of aurora-2 kinase activity (rank among tested compounds): 20 μM, FIG. 10; for IC50: aurora-2 kinase, FIG. 11
T1 construct: purchased Imgenex, San Diego, Calif; host or cells: sf9 cells
T1 sequence (O14965 1-403): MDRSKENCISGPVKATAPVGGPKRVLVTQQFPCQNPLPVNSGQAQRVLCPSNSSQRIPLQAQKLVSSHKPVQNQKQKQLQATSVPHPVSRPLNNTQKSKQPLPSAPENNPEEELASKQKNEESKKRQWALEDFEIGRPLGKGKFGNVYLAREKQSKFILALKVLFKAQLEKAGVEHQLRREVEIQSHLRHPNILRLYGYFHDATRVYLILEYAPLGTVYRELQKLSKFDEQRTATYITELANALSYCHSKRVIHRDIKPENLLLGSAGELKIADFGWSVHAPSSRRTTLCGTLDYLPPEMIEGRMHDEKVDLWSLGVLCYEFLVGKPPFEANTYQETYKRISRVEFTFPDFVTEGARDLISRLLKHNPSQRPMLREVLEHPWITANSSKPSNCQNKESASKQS
Protocol: In this assay kinase activity is determined by quantifying the amount of ATP remaining in solution following the kinase reaction by measuring the light units (LU) produced by luciferase using a luminometer. Percent inhibition was determined for individual compounds by comparing luminometer readings of drug-treated reactions to controls containing no drug (DMSO control) and no Aurora-2 enzyme (ATP control) in the following equation: […]
In a 50 μl reaction, recombinant aurora-2 kinase produced in sf9 cells (Imgenex, San Diego, Calif.) was incubated at 30° C. for two hours with 62.5 μM Kemptide (Calbiochem, San Diego, Calif.), 3 μM ATP (Invitrogen, Carlsbad, Calif.) and kinase reaction buffer (40 mM Tris-HCl, 10 mM MgCl2 and 0.1 μg/μl bovine serum albumin (BSA)). This reaction was carried out in the presence of drug substances, which had been previously diluted to desired concentrations in DMSO. After incubation, 50 μl of Kinase-Glo® (Promega, Inc., Madison, Wis.) solution was added to each reaction mixture and allowed to equilibrate for 10 minutes at room temperature. Kinase-Glo solution contains luciferase enzyme and luciferin, which react with ATP to produce light. Kinase activity is determined by quantifying the amount of ATP remaining in solution following the kinase reaction by measuring the light units (LU) produced by luciferase using a luminometer (PerkinElmer, Boston, Mass.).

[2] = tested on: A549 non-small cell lung cancer (NSCLC) cells; experiment: Flow cytometric analysis (sub-G1 peak); type: cell-based; conditions: A549, 48 hours, MP-470 alone
Protocol: (§1) In addition, A549 non-small cell lung cancer (NSCLC) cells and LNCaP prostate carcinoma cells were treated with MP-470 in the presence or absence of Tarceva® for 48 hours and subjected to flow cytometric analysis. Nocodazole was also included to induce a G2/M arrest, in an effort to determine if these compounds could overcome such a block. Left-hand columns for each cell type represent cells with no additional treatment, while right-hand columns represent cells pretreated overnight with nocodazole (0.3 ug/mL) to induce G2/M arrest.

[3] = tested on: LNCaP prostate carcinoma cells; experiment: Flow cytometric analysis (sub-G1 peak); type: cell-based; conditions: 48 hours, MP-470 alone
Protocol: as §1

[4] = tested on: Akt phosphorylation in NIH 3T3 cells; experiment: Immunoblot for phospho-Akt (S473); type: cell-based
Protocol: In order to evaluate these effects at the cellular level, immunoblot analysis was performed on lysates from cells treated with MP470, with or without the addition of the EGFR inhibitor Tarceva®. Lysates were assayed for general tyrosine kinase activity, as well as the specific phosphorylation of c-Met and Akt. Briefly, NIH 3T3 cells were pretreated with drugs as indicated for 4 hours, then treated with pervanadate for a further 30 minutes. Immunoblot detection was carried out with antibodies for phosphotyrosine, phospho-Met and phospho-Akt (S473), as well as total c-Met and Akt. Beta-actin was used as a loading control.

[5] = tested on: Akt phosphorylation in LNCaP prostate carcinoma cells; experiment: Immunoblot for phospho-Akt (S473); type: cell-based; conditions: 48 hours
Protocol: LNCaP prostate carcinoma cells were treated with MP-470, in combinations with Tarceva® and Gleevec®, for 48 hours. Following incubation, cells were lysed and total protein subjected to immunoblot analysis for total Akt and phospho-Akt (S473).

[6] = target: c-met (Homo sapiens, UniProt P08581); experiment: Activity against c-met (stated); type: biochemical
c-met, sequence (P08581 25-1390): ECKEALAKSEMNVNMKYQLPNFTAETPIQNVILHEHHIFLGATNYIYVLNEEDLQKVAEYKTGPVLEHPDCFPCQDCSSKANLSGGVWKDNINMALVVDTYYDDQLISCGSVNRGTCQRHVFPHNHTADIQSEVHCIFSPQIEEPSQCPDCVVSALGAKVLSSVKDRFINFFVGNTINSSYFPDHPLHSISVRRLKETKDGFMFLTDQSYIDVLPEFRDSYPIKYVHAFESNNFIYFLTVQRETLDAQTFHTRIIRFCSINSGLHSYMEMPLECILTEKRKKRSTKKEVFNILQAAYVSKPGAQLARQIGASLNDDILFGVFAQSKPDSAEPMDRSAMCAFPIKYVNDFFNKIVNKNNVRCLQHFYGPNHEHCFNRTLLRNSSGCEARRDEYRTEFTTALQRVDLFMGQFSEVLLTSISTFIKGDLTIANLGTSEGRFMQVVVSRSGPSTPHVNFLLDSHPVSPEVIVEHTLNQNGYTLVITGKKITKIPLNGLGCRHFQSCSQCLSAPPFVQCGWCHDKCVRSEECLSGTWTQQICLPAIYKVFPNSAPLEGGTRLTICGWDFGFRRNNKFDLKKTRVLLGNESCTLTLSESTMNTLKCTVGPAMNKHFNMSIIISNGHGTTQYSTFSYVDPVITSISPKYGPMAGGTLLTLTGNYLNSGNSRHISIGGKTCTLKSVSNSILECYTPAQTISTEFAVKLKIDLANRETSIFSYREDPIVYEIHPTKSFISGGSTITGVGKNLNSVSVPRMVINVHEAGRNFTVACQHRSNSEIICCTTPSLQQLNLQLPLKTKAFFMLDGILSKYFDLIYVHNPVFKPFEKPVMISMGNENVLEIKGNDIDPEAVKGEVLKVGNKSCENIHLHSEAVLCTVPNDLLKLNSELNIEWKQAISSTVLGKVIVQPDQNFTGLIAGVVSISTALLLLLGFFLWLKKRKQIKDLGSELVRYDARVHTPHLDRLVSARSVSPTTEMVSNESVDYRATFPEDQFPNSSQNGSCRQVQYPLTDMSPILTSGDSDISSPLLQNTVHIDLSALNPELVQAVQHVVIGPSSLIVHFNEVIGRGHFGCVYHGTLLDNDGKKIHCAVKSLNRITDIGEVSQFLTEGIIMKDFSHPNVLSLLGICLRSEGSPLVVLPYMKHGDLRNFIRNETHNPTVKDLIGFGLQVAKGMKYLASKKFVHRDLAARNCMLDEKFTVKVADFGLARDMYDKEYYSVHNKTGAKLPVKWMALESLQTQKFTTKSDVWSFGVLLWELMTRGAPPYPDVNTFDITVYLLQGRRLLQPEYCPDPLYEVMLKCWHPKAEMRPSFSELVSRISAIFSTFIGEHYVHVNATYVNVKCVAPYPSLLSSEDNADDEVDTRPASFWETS

[7] = target: c-Kit (Homo sapiens, UniProt P10721); experiment: Autophosphorylation assay with γ-32P-ATP; type: biochemical; conditions: FIG. 28A
c-Kit, sequence (P10721 26-976): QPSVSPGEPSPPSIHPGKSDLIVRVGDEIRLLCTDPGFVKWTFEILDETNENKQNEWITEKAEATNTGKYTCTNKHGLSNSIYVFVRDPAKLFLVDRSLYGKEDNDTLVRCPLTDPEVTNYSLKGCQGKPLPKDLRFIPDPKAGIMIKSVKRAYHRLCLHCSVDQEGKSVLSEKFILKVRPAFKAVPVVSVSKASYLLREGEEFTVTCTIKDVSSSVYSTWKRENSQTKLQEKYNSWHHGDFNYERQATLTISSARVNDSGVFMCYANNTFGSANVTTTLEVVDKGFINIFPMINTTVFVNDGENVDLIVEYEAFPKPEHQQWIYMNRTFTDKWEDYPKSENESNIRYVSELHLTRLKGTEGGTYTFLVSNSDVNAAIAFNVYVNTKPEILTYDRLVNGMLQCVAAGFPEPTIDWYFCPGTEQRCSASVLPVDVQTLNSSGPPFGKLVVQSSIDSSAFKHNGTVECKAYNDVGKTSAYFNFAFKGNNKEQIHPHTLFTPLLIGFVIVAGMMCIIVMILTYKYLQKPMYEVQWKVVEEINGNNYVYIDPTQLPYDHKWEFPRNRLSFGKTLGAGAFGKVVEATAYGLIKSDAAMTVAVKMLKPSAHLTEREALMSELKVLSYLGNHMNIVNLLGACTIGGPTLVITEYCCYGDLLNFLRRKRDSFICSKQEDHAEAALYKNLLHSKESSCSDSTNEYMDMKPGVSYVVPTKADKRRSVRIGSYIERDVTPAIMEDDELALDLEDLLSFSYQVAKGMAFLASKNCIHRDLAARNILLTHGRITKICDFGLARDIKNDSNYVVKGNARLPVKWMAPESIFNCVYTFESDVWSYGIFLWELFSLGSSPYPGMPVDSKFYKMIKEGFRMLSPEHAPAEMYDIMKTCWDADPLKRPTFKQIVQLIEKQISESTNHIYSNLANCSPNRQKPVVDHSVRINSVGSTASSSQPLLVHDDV
Protocol: (§2) Enzymes were incubated with the appropriate concentration of inhibitor and radiolabeled γ-^32P-ATP. After 30 minutes, the reaction mixtures were electrophoresed on an acrylamide gel and autophosphorylation, quantitated by the amount of radioactivity incorporated into the enzyme, was assayed.

[8] = target: PDGFRa (Homo sapiens, UniProt P16234); experiment: Autophosphorylation assay with γ-32P-ATP; type: biochemical; conditions: FIG. 28B
PDGFRa, sequence (P16234 24-1089): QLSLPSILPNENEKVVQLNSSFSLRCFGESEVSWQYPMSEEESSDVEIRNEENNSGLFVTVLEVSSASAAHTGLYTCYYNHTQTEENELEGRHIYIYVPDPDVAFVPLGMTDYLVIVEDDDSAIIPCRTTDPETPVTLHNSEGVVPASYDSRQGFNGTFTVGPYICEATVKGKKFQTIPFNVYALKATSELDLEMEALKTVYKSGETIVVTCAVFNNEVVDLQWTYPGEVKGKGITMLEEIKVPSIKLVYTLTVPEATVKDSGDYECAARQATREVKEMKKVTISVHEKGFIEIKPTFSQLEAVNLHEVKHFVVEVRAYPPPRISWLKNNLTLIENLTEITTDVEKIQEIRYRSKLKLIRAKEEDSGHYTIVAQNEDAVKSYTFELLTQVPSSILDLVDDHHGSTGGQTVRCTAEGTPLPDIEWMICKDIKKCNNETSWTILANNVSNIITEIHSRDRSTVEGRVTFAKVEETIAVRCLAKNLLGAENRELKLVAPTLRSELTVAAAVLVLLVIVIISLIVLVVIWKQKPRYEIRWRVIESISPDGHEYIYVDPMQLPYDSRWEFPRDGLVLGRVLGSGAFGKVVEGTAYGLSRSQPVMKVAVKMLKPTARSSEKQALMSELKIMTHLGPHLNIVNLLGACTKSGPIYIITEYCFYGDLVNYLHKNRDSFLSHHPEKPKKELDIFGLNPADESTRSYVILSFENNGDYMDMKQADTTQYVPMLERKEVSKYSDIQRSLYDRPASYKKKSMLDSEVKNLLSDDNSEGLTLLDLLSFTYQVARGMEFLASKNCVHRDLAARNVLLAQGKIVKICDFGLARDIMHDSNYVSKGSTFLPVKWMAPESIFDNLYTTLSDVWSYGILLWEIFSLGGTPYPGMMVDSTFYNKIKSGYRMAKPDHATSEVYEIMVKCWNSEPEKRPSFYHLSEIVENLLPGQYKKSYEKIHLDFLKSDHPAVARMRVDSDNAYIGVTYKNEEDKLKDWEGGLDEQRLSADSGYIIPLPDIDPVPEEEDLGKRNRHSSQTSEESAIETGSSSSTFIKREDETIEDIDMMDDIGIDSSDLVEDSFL
Protocol: as §2

[9] = target: cKit(V654A)(h) (Homo sapiens, UniProt P10721, V654A); experiment: Kinase profile screen; type: biochemical; conditions: 1 uM
cKit(V654A)(h), sequence (P10721 26-976 V654A): as the sequence (P10721 26-976) above, with V629A counted along it
Protocol: (§3) In order to determine the specificity and potential alternative targets for MP470, kinase profile screen were performed utilizing the KinaseProfiler™ Screen (Upstate Corp) and Select Screen™ kinase profiling (Invitrogen). Between the two screens, 53 different kinases were tested, representing a broad proportion of the human kinome. MP470 was screened at a concentration of 1 μM against both wildtype and mutant kinases.

[10] = target: cKit(D816V)(h) (Homo sapiens, UniProt P10721, D816V); experiment: Kinase profile screen; type: biochemical; conditions: 1 uM
cKit(D816V)(h), sequence (P10721 26-976 D816V): as the sequence (P10721 26-976) above, with D791V counted along it
Protocol: as §3

[11] = target: Flt3(D835Y)(h) (Homo sapiens, UniProt P36888, D835Y); experiment: Kinase profile screen; type: biochemical; conditions: 1 uM
Protocol: as §3

[12] = target: PDGFRα(V561D)(h) (Homo sapiens, UniProt P16234, V561D); experiment: Kinase profile screen; type: biochemical; conditions: 1 uM
PDGFRα(V561D)(h), sequence (P16234 24-1089 V561D): as the sequence (P16234 24-1089) above, with V538D counted along it
Protocol: as §3

[13] = target: cKit(V560G)(h) (Homo sapiens, UniProt P10721, V560G); experiment: Kinase profile screen; type: biochemical; conditions: 1 uM
cKit(V560G)(h), sequence (P10721 26-976 V560G): as the sequence (P10721 26-976) above, with V535G counted along it
Protocol: as §3

[14] = tested on: SF-767 glioblastoma multiformes cells; experiment: MTS cell death assay; type: cell-based
Protocol: To evaluate the ability of MP470 to enhance clinical therapy we used MP470 in combination with ionizing radiation on culture cancer cells. SF-767 glioblastoma multiformes cells were treated with 1 μM MP470, 800c Gy IR, or a combination of both.

[15] = target: T1, aurora-2 kinase; experiment: Protein kinase inhibitory activity (Example 33, Kinase-Glo); type: biochemical; conditions: FIG. 27
Protocol: Percent activity was determined for individual compounds by comparing luminometer readings of drug-treated reactions to controls containing no drug (RLUNo Inhib) and no Aurora-2 enzyme (RLUNo Kinase) in the following equation:
After incubation, 50 μl of Kinase-Glo® (Promega, Inc., Madison, Wis.) solution was added to each reaction mixture and allowed to equilibrate for 10 minutes at room temperature. Kinase-Glo solution contains luciferase enzyme and luciferin, which react with ATP to produce light. Kinase activity is determined by quantifying the amount of ATP remaining in solution following the kinase reaction by measuring the relative light units (RLU) produced by luciferase using a luminometer (Thermo Electron Corporation, Vantaa, Finland).

## COc1cc2ncnc(N3CCN(C(=S)Nc4ccc(S(=O)(=O)Nc5ncccn5)cc4)CC3)c2cc1OC [HPK16, 4-(6,7-Dimethoxy-quinazolin-4-yl)-piperazine-1-carbothioic acid [4-(pyrimidin-2-ylsulfamoly)-phenyl]-amide]
[1]
  aurora-2 kinase inhibitory activity (in words): particularly effective inhibitors
  degree of inhibition of aurora-2 kinase activity (rank among tested compounds): second highest inhibition
  IC50: 4700 nM

## S=C(NCc1ccc2c(c1)OCO2)N1CCN(c2ncnc3c2oc2ccccc23)CC1 [HPK56, 4-Benzo[4,5]furo[3,2-d]pyrimidin-4-yl-piperazine-1-carbothioic acid (benzo[1,3]dioxol-5-ylmethyl)-amide]
[2]
  apoptosis (sub-G1 peak): induced apoptosis
[3]
  apoptosis (sub-G1 peak): induced apoptosis
[4]; NIH 3T3, 4 hours, agent alone
  phosphorylation of Akt: reduced
[4]; NIH 3T3, MP-470 in combination with Tarceva®
  phosphorylation of Akt: reduced
[5]; MP-470 and Tarceva® in combination
  reduction of phosphorylation of Akt: enhanced
[5]; agent alone
  phosphorylation of Akt: reduced in a dose-dependent manner
[6]
  activity against c-met (in words): low micromolar
[7]
  inhibition of c-Kit autophosphorylation (in words): dose-dependent
[8]
  inhibition of PDGFRa autophosphorylation (in words): dose-dependent
[9]
  activity against mutant kinase: activity
[10]
  activity against mutant kinase: activity
[11]
  activity against mutant kinase: activity
[12]
  activity against mutant kinase: activity
[13]
  activity against mutant kinase: activity
[14]; SF-767, 1 μM MP470 alone
  cell death (MTS): induced cell death
[14]; SF-767, 1 μM MP470 in combination with 800c Gy IR
  increase of cell death over either agent alone: more than 2 fold

## COc1cc2[nH]c3ncnc(N4CCN(C(=S)Nc5ccc(S(=O)(=O)Nc6ncccn6)cc5)CC4)c3c2cc1OC [HPK62, 4-(6,7-Dimethoxy-9H-1,3,9-triaza-fluoren-4-yl)-piperazine-1-carbothioic acid [4-(pyrimidin-2-ylsulfamoyl)-phenyl]-amide]
[1]
  aurora-2 kinase inhibitory activity (in words): particularly effective inhibitors
  degree of inhibition of aurora-2 kinase activity (rank among tested compounds): highest inhibition
  IC50: 900 nM
[1]; listed as II-2-6
  aurora-2 kinase inhibitory activity (in words): low nanomolar
[15]
  kinase inhibitory activity (in words): highest activity
